Source: paper PMC12691635 (Antimicrobial Agents and Chemotherapy, 2025)

Experiments:
[1] = test system: chronic prosthetic joint infections caused by Gram-positive bacteria; assay: Microbiological and clinical cure after two-stage exchange with a single 1,500 mg dose; format: in vivo, human
[2] = Adverse events attributable to dalbavancin during follow-up; format: in vivo, human; conditions: single 1,500 mg i.v. dose, over administration and during follow-up, including changes in renal function; 20 patients
[3] = Population pharmacokinetic analysis (Monolix); format: in vivo, human
Experimental: The non-linear mixed-effect modeling software Monolix 2024R1 (Lixoft SAS, a Simulations Plus company) implementing the stochastic approximation expectation maximization algorithm was used for model development ([18]).
One- and multicompartment models with first-order elimination were tested. All individual parameters were assumed to be log-normally distributed. Inter-individual variability (IIV) was described using an exponential model. To describe residual variability, several error models (constant, proportional, or combined error model) were tested. The most appropriate structural model was selected based on the following criteria: Akaike information criterion, corrected Bayesian information criterion, usual goodness-of-fit plots, and relative standard errors. […] Model internal validation was based on goodness-of-fit plots, including observations versus individual (IPRED) and population predictions (PRED) and plots of normalized prediction distribution error (NPDE) versus PRED and time. A prediction-corrected visual predictive check (pc-VPC) was performed using 500 simulations with the final model ([21]), and non-parametric bootstrapping (n = 1,000) was used for assessing stability and robustness of the final model using Monolix 2024R1.

[4] = single 1,000 mg dose, 2 weeks post-administration, non-infected patients undergoing elective orthopedic surgery; cited from earlier work
Description: Assessment of optimal antibiotic exposure at the site of the infection is challenging, especially for deep-seated infections, such as bone and joint, and often unbound plasma exposure is used as a worst-case scenario surrogate for target site exposure assuming that only the free (unbound) concentration can distribute to peripheral tissues ([37]). However, drug PK in the peripheral tissues depends not only on protein binding but also on other characteristics, such as drug’s molecular weight and physiochemistry, varying broadly across antibiotic classes ([38]). For dalbavancin, Dunne et al. perf ...

[5] = cited from earlier work
Experimental: Our observations were best described by a one-compartment model, which is in accordance with the sparse data gathered from routine clinical practice ([40]). […] A potential explanation is that the studies that report higher CL were performed ...

clinical = conditions: human, in vivo, iv, 1500 mg
Experimental: Blood samples obtained during the follow-up visits were processed immediately after extraction, centrifuged at 3,000 g for 10 min and frozen at −80°C until bioanalysis.

[6] = non-parametric bootstrap n = 1,000
[7] = one-compartment model, total concentrations, 18 patients with CPJI, single 1,500 mg i.v.

For `CN[C@H]1C(=O)N[C@@H]2Cc3ccc(cc3)Oc3cc4cc(c3O[C@@H]3O[C@H](C(=O)O)[C@@H](O)[C@H](O)[C@H]3NC(=O)CCCCCCCCC(C)C)Oc3ccc(cc3Cl)[C@@H](O)[C@@H]3NC(=O)[C@H](NC(=O)[C@@H]4NC(=O)[C@@H](NC2=O)c2cc(cc(O)c2Cl)Oc2cc1ccc2O)c1ccc(O)c(c1)-c1c(O[C@H]2O[C@H](CO)[C@@H](O)[C@H](O)[C@@H]2O)cc(O)cc1[C@@H](C(=O)NCCCN(C)C)NC3=O` [dalbavancin], the “Clinical failures or relapses” value ([1]; median follow-up of 693 days (IQI 630–824) after the second-stage procedure) was “no clinical failures or relapses”, the Second-stage surgery isolates ([1]; patient 2, hip, first-stage S. lugdunensis, after Daptomycin (4)-Cefazolin (7) days) was “No growth” and the Second-stage surgery isolates ([1]; patient 3, hip, first-stage E. faecalis, after Daptomycin (4)-Ampicillin (7) days) was “No growth”. The Second-stage surgery isolates ([1]; patient 4, hip, first-stage S. hominis, after Vancomycin (6)-Linezolid (9) days) was “No growth”, the Second-stage surgery isolates ([1]; patient 5, hip, first-stage S. epidermidis, after Daptomycin (10) days) was “No growth” and the Second-stage surgery isolates ([1]; patient 6, hip, first-stage S. epidermidis, after Vancomycin (13)-Daptomycin (3) days) was “No growth”. For the same compound, the Second-stage surgery isolates ([1]; patient 7, shoulder, first-stage S. epidermidis, after Vancomycin (3)-Daptomycin (5) days) was “No growth”, the Second-stage surgery isolates ([1]; patient 8, knee, first-stage C. acnes, after Vancomycin (8) days) was “No growth” and the Second-stage surgery isolates ([1]; patient 9, hip, first-stage S. epidermidis, after Vancomycin (20) days) was “No growth”. For the same compound, the Second-stage surgery isolates ([1]; patient 10, hip, first-stage S. epidermidis, C. acnes, after Vancomycin (3)-Daptomycin (9) days) was “No growth”, the Second-stage surgery isolates ([1]; patient 11, knee, first-stage S. epidermidis, after Vancomycin (7) days) was “No growth” and the Second-stage surgery isolates ([1]; patient 12, knee, first-stage C. acnes, after Vancomycin (3)-Linezolid (5) days) was “No growth”. For the same compound, the Second-stage surgery isolates ([1]; patient 13, knee, first-stage S. epidermidis, after Vancomycin (10) days) was “No growth”, the Second-stage surgery isolates ([1]; patient 14, knee, first-stage S. epidermidis, after Vancomycin (7)-Linezolid (5) days) was “No growth” and the Second-stage surgery isolates ([1]; patient 15, hip, first-stage S. capitis, C. acnes, after Vancomycin (7)-Daptomycin (10) days) was “No growth”. For the same compound, the Second-stage surgery isolates ([1]; patient 16, knee, first-stage S. capitis, S. pettenkoferi, after Vancomycin (5)-Daptomycin (7) days) was “No growth”, the Second-stage surgery isolates ([1]; patient 17, shoulder, first-stage C. acnes, after Vancomycin (10) days) was “S. epidermidis S. hominis” and the Second-stage surgery isolates ([1]; patient 18, hip, first-stage S. epidermidis, after Vancomycin (10)-Linezolid (13) days) was “No growth”. For the same compound, the Second-stage surgery isolates ([1]; patient 19, hip, first-stage S. epidermidis, C. acnes, after Vancomycin (4)-Tedizolid (14) days) was “No growth”, the Second-stage surgery isolates ([1]; patient 20, hip, first-stage S. epidermidis, after Daptomycin (12) days) was “No growth” and the Microbiological cure rate ([1]; single 1,500 mg i.v. dose after median 11.5 days systemic antibiotics, vancomycin-gentamicin spacer, negative intraoperative cultures at second-stage surgery) was 94.7%. The Adverse events [2] was “No adverse events were reported”, the “CL, clearance, bootstrap median (95% CI)” value [3, 6] was 0.037 (0.031–0.043) L/h and the “V, volume of distribution, bootstrap median (95% CI)” value [3, 6] was 18.0 (16.0–20.3) L. The “CL, clearance, estimate (% RSE)” value [3, 7] was 0.036 (8.2 %) [12.6%] L/h, the “V, volume of distribution, estimate (% RSE)” value [3, 7] was 17.9 (6.2 %) [18.1%] L and the “Measured amount in homogenized cortical bone” value [4] was 4.1 µg/g. The “CL reported in healthy volunteers and patients with acute infections” value [5] was 0.050 L/h, the level at 336 h (clinical) was 58500 ng/mL and the level at 504 h (clinical) was 29700 ng/mL. The level at 672 h (clinical) was 13300 ng/mL.
